Experimental data: paper PMC9663578, “A fluorogenic probe for predicting treatment response in non-small cell lung cancer with EGFR-activating mutations” (Nature Communications, 2022)
Several values for one entry are separate records, joined by “and”; a condition that tells them apart may be missing. Equal values may be shown once.

Legend:
EGFR L858R [1] = biological target: T1, EGFR L858R (Homo sapiens, UniProt P00533, L858R); assay: Fluorescence turn-on response / titration of HX103 with recombinant EGFR;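 as to Fluorescence intensity at 570 nm: 100% is HX103 fluorescence with wild-type EGFR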;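 as to all read-outs here: fluorescence of the probe measured with recombinant EGFR L858R in PBS carrying 0.1% DMSO, excitation at 440 nm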; format: binding; conditions: for Fluorescence intensity, L858R: Fig. 2c; for Fluorescence response of HX103 to EGFR L858R: Supplementary Fig. 2f
T1 construct: EGFR L858R (amino acids 668–1210, #PR7447A); purchased Thermo Fisher PR7447A
Procedure: (d) Fluorescence spectra change of HX103 (5 µ M) with increasing concentration of EGFR L858R
(e) Fluorescence spectra change of HX103 (5 µ M ) with
increasing concentration of EGFR 19del (0 to 6 µM) in PBS buffer. (f) Titration curve of HX103
(5 µM) with increasing concentration of EGFRs (0 to 6 µM). The apparent binding affinity (Kd)
The fluorescence titration curve was fitted on one -
site specific binding model. I and I0 represent the intensities of HX103 at 570 nm in the presence
and absence of protein. Data represent average val ues ± SD, n = 3 independent experiments per
dissolved in dimethyl sulfoxide (DMSO) to obtain stock solutions (10 mM). The prepared stock
solution was diluted in sodium phosphate buffer (PBS, 1 M, pH=7.4) to obtain the desired final
concentration solution, containing 0.1% (v/v) DMSO as a cosolvent.
and emission fluorescence spectra of the solution before/after addition o f different concentration
Data analysis：The obtained fluorescence intensity at 570 nm (Excitation wavelength was 440
nm) in each sample was normalized by using the fluorescence intensity of HX103 in the presence
of EGFR. Specifically, the fluorescence intensity of HX103 in the presence of EGFR wild-type
was set at 100% to normalized that of the remaining samples.

EGFR wild-type = biological target: T2, EGFR wild-type (Homo sapiens, UniProt P00533); assay: Kinase inhibition assay (fluorescent mobility-shift assay); format: biochemical; parameters: Kinase activity: unit not given here; conditions: for Kinase activity: EGFR WT, n=1-3
T2 construct: Recombinant human EGFR (amino acids 668–1210, #PR7295B); purchased Thermo Fisher PR7295B

EGFR L858R [2] = biological target: T1, EGFR L858R; assay: as above; format: biochemical; parameters: Kinase activity: unit not given here; conditions: for Kinase activity: L858R, n=1-3
EGFR 19del = biological target: T3, EGFR 19del (Homo sapiens, UniProt P00533, DEL746-750); assay: as above; format: biochemical; parameters: Kinase activity: unit not given here; conditions: for Kinase activity: 19del, n=1-3
T3 construct: purchased Thermo Fisher PV6179

HCC827 cells = assay: MTT cytotoxicity assay; format: cell-based; conditions: Homo sapiens, EGFR 19del, 48 h, n=3
H1975 cells = assay: MTT cytotoxicity assay; format: cell-based; conditions: Homo sapiens, NCI-H1975; EGFR L858R/T790M, 48 h, n=3
[3] = tested on: tumor tissues from NSCLC patients; assay: HX103-based multicolor FACS, surgical tumor tissues; format: cell-based, human
Procedure: The obtained tissues were dissociated into single-cell suspension using a standard protocol of primary cell isolation. Briefly, the obtained fresh tissue was placed in a petri dish on ice and cut into small pieces of ~2 mm. […] Subsequently, the digested sample was filtered through 70-μm and 40-μm cell strainer (Falcon), respectively, followed by the wash with serum-free medium (DMEM). The tumor cell pellet was then obtained by centrifugation at 500×g for 5 min at 4 °C for the removal of the supernatant. Then, the cell pellet was resuspended in serum-free medium and 1 mL of red blood cell lysis buffer was added and incubated for 5 min to remove the erythrocyte. The cells were pelleted and resuspended in a serum-free medium and ready for FACS analysis[67],[68]. […]
Gibco), and digested for 30 min at 37 ℃ under gentle agitation. […] The cells were pelleted and resuspended in serum-free medium and ready for FACS analysis 2, 3. […]
The co-staining was performed for 30 min at 37 °C, then the cells were pelleted (2000 g, 3 min) and washed with PBS buffer and PBS (containing 1% BSA) (2 times). The cells were pelleted (2000 g, 3 min) and resuspended in PBS (containing 1% BSA) and ready for analysis with a FACSVerseTM flow cytometer (BD Biosciences, LSRFortessa) (the lasers used for this study: 405 nm, 488 nm and 647 nm). […]

[4] = tested on: biopsy samples from NSCLC patients; assay: HX103-based multicolor FACS, biopsy samples; format: cell-based, human

Fluorescence intensity, L858R (EGFR L858R [1]; wavelength 666 nm): 4655.85 | Fluorescence intensity, L858R (EGFR L858R [1]; wavelength 669 nm): 4299.18 | Fluorescence intensity, L858R (EGFR L858R [1]; wavelength 671 nm): 3977.08 | Fluorescence intensity, L858R (EGFR L858R [1]; wavelength 673 nm): 3702.64 | Fluorescence intensity, L858R (EGFR L858R [1]; wavelength 676 nm): 3456.05 | Fluorescence intensity, L858R (EGFR L858R [1]; wavelength 678 nm): 3215.71 | Fluorescence intensity, L858R (EGFR L858R [1]; wavelength 681 nm): 2960.24 | Fluorescence intensity, L858R (EGFR L858R [1]; wavelength 683 nm): 2683.28 | Fluorescence intensity, L858R (EGFR L858R [1]; wavelength 686 nm): 2403.9 | Fluorescence intensity, L858R (EGFR L858R [1]; wavelength 688 nm): 2143.64 | Fluorescence intensity, L858R (EGFR L858R [1]; wavelength 690 nm): 1924.01 | Fluorescence intensity, L858R (EGFR L858R [1]; wavelength 693 nm): 1757.52 | Fluorescence intensity, L858R (EGFR L858R [1]; wavelength 695 nm): 1633.62 | Fluorescence intensity, L858R (EGFR L858R [1]; wavelength 698 nm): 1538.11 | Fluorescence intensity, L858R (EGFR L858R [1]; wavelength 700 nm): 1456.78 | Fluorescence intensity at 570 nm (EGFR L858R [1]; Fig. 2d, HX103 with EGFR L858R, n=1-3): 94.4744 and 115.569 and 99.2784 | fluorescence turn-on response (EGFR L858R [1]; HX103 5 µM in PBS buffer (0.1% DMSO), 570 nm): high fluorescence | Kd (EGFR L858R [1]; HX103 5 µM, EGFR 0 to 6 µM in PBS, one-site specific binding model, read-out: apparent binding affinity (Kd)): 800 ± 300 nM | Fluorescence response of HX103 to EGFR L858R (EGFR L858R [1]; EGFR 1 µM, n=1-3): 6.4875 and 6.559 and 3.424 | Fluorescence response of HX103 to EGFR L858R (EGFR L858R [1]; EGFR 2 µM, n=1-3): 8.6 and 6.836 and 4.376 | Fluorescence response of HX103 to EGFR L858R (EGFR L858R [1]; EGFR 5 µM, n=1-3): 8.998 and 10.1242 and 7.156 | Fluorescence response of HX103 to EGFR L858R (EGFR L858R [1]; EGFR 6 µM, n=1-3, 0 at EGFR 0): 9.745 and 11.2537 and 8.24 | Kinase activity (EGFR wild-type; Log [HX103 (M)] -7): 3.448 and 5.933 and 4.591 | Kinase activity (EGFR wild-type; Log [HX103 (M)] -7.5): 17.07 and 12.53 and 15.46 | Kinase activity (EGFR wild-type; Log [HX103 (M)] -8): 28.39 and 28.36 and 28.22 | Kinase activity (EGFR wild-type; Log [HX103 (M)] -8.5): 52.62 and 55.81 and 54.21 | Kinase activity (EGFR wild-type; Log [HX103 (M)] -9): 85.4 and 76.53 and 77.56 | IC50 (EGFR wild-type; n = 3): 4 nM | Kinase activity (EGFR L858R [2]; Log [HX103 (M)] -5.5): 1.026 and 1.162 and 1.004 | Kinase activity (EGFR L858R [2]; Log [HX103 (M)] -6): 0.499 and 0.9509 and 0.7157 | Kinase activity (EGFR L858R [2]; Log [HX103 (M)] -7): 0.6308 and 0.9321 and 0.7802 | Kinase activity (EGFR L858R [2]; Log [HX103 (M)] -7.5): 4.698 and 2.842 and 4.52 | Kinase activity (EGFR L858R [2]; Log [HX103 (M)] -8): 12.69 and 17.65 and 16.97 | Kinase activity (EGFR L858R [2]; Log [HX103 (M)] -8.5): 28.21 and 40.93 and 37.97 | Kinase activity (EGFR L858R [2]; Log [HX103 (M)] -9): 37.52 and 69.85 and 65.69 | IC50 (EGFR L858R [2]; n = 3): 1.5 nM | Kinase activity (EGFR 19del; Log [HX103 (M)] -7.5): 4.826 and 8.074 and 4.95 | Kinase activity (EGFR 19del; Log [HX103 (M)] -8): 14.14 and 14.3 and 14.2 | Kinase activity (EGFR 19del; Log [HX103 (M)] -8.5): 33.15 and 25.38 and 27.26 | Kinase activity (EGFR 19del; Log [HX103 (M)] -9): 51.95 and 59.57 and 58.76 | IC50 (EGFR 19del; n = 3): 1.3 nM
SMILES: COc1cc2c(Nc3ccc(F)c(Cl)c3)ncnc2cc1OCCCNc1ccc(S(=O)(=O)N(C)C)c2nonc12 [HX103]
IC50 (HCC827 cells): 9300 nM | IC50 (H1975 cells): 45000 nM | mean % value of HX103(+), EGFR 19del tumors ([3]; n = 4): 40.6±8.2% | mean % value of HX103(+), EGFR L858R tumors ([3]; n = 8): 65.3±10.9% | mean ratio of EGFR(+)HX103(+), responders ([4]; CR or PR, n = 9): 43.5 ± 2.8% | mean ratio of HX103(+), responders ([4]; CR or PR, n = 9): 54.1 ± 3.3% | EGFR(+) HX103 (+) (%) AVE ([4]; Fig. 6f, CR/PR, average): 43.5167% | HX103 (+) (%) AVE ([4]; Fig. 6f, CR/PR, average): 54.1% | EGFR(+) HX103 (+) (%) AVE ([4]; Fig. 6f, SD/PD, average): 9.47% | HX103 (+) (%) AVE ([4]; Fig. 6f, SD/PD, average): 17.0025% | EGFR(+) HX103 (+) (%) ([4]; Fig. 6g, Patient (No. 3)): 26.16% | EGFR(+) HX103 (+) (%) ([4]; Fig. 6h, Patient (No. 7)): 34.2% | HX103(+) (%) ([4]; Fig. 6h, Patient (No. 7)): 51.5% | EGFR(+) HX103 (+) (%) AVE ([4]; Fig. 6d, Mutation, average over patients): 34.0833%
